Results taken from ChEMBL document CHEMBL5032540, “Design, Synthesis, and Biological Evaluation of Novel EGFR PROTACs Targeting Del19/T790M/C797S Mutation” (ACS Med Chem Lett, 2022).
Each block holds one molecule with its values, some of them ahead of it. The source made the active and inactive calls. The calls are words filed in the database; no cut-off is given here.

Experiments:
BaF3 [1] = test: Antiproliferative activity against mouse BaF3 cells expressing EGFR del19/T790M/C797S triple mutant assessed as cell growth inhibition measured after 72 hrs by CCK8 assay; format: functional, cell-based; details: BaF3, 72 h
BaF3 [2] = test: Induction of EGFR del19/T790M/C797S triple mutant degradation in mouse BaF3 cells at 0.1 uM measured after 3 hrs by Western blot analysis relative to control; format: cell-based
BaF3 [3] = test: Induction of EGFR del19/T790M/C797S triple mutant degradation in mouse BaF3 cells at 0.01 uM measured after 3 hrs by Western blot analysis relative to control; format: cell-based
BaF3 [4] = test: Induction of EGFR del19/T790M/C797S triple mutant degradation in mouse BaF3 cells at 0.01 to 0.1 uM measured after 3 hrs by Western blot analysis; format: cell-based; details: dose 0.01-0.1 µM
BaF3 [5] = test: Induction of EGFR del19/T790M/C797S triple mutant degradation in mouse BaF3 cells at 0.1 uM preincubated with compound for 3 hrs followed by compound washout and measured after 24 hrs by Western blot analysis; format: cell-based
[6] = target: RAC-alpha serine/threonine-protein kinase (Mus musculus) (UniProt P31750); test: Inhibition of Akt phosphorylation in mouse BaF3 cells expressing EGFR del19/T790M/C797S triple mutant after 3 hrs by Western blot analysis; format: cell-based; details: dose 0.001-10 µM
BaF3 [7] = test: Inhibition of ERK phosphorylation in mouse BaF3 cells expressing EGFR del19/T790M/C797S triple mutant after 3 hrs by Western blot analysis; format: cell-based; details: dose 0.001-10 µM
BaF3 [8] = test: Induction of EGFR del19/T790M/C797S triple mutant degradation in mouse BaF3 cells at 1 uM after 3 hrs by immunoblotting analysis relative to control; format: cell-based
BaF3 [9] = test: Induction of EGFR del19/T790M/C797S triple mutant degradation in mouse BaF3 cells after 3 hrs by immunoblotting analysis; format: cell-based; details: dose 0.001-10 µM
BaF3 [10] = test: Induction of EGFR del19/T790M/C797S triple mutant degradation in mouse BaF3 cells at 0.1 uM preincubated for 3 hrs with EGFR inhibitor 3 followed by compound addition and measured after 3 hrs by Western blot analysis; format: cell-based
BaF3 [11] = test: Induction of EGFR del19/T790M/C797S triple mutant degradation in mouse BaF3 cells at 0.1 uM measured after 3 to 24 hrs by Western blot analysis; format: cell-based; details: time 3-24 hrs
[12] = tested on: Epidermal growth factor receptor (Homo sapiens), P00533 [UNDEFINED MUTATION]; test: Induction of EGFR del19 mutant degradation in human HCC827 cells assessed as decrease in EGFR protein level at 0.005 to 0.5 uM measured after 3 hrs by Western blot assay; format: cell-based; details: dose 0.005-0.5 µM
[13] = target: Epidermal growth factor receptor (Homo sapiens) (UniProt P00533); test: Induction of EGFR degradation in human A-431 cells assessed as decrease in EGFR protein level at 0.005 to 0.5 uM measured after 3 hrs by Western blot assay; format: cell-based; details: dose 0.005-0.5 µM
[14] = tested on: Epidermal growth factor receptor (Homo sapiens), P00533 [L858R]; test: Induction of EGFR L858R mutant degradation in human […] cells assessed as decrease in EGFR protein level at 0.005 to 0.5 uM measured after 3 hrs by Western blot assay; format: cell-based; details: NCI-H3255, dose 0.005-0.5 µM
[15] = tested on: Epidermal growth factor receptor (Homo sapiens), P00533 [L858R,T790M]; test: Induction of EGFR L858R/T790M mutant degradation in human NCI-H1975 cells assessed as decrease in EGFR protein level at 0.005 to 0.5 uM measured after 3 hrs by Western blot assay; format: cell-based; details: dose 0.005-0.5 µM
NCI-H1975 = test: Antiproliferative activity against human NCI-H1975 cells expressing EGFR L858R/T790M double mutant assessed as cell growth inhibition after 72 hrs by CCK-8 assay; format: functional, cell-based; details: NCI-H1975, 72 h
NCI-H3255 = test: Antiproliferative activity against human NCI-H3255 cells expressing L858R mutant assessed as cell growth inhibition after 72 hrs by CCK-8 assay; format: functional, cell-based; details: NCI-H3255, 72 h
HCC827 = test: Antiproliferative activity against human HCC827 cells expressing EGFR del19 mutant assessed as cell growth inhibition after 72 hrs by CCK-8 assay; format: functional, cell-based; details: HCC827, 72 h
A-431 = test: Antiproliferative activity against human A-431 cells expressing wild-type EGFR assessed as cell growth inhibition after 72 hrs by CCK-8 assay; format: functional, cell-based; details: A-431, 72 h
BaF3 [16] = test: Induction of EGFR del19/T790M/C797S triple mutant degradation in mouse BaF3 cells at 0.1 uM preincubated for 3 hrs with VHL ligand 5 followed by compound addition and measured after 3 hrs by Western blot analysis; format: cell-based
BaF3 [17] = test: Induction of EGFR del19/T790M/C797S triple mutant degradation in mouse BaF3 cells at 0.1 uM preincubated for 2 hrs with proteosome inhibitor MG132 followed by compound addition and measured after 3 hrs by Western blot analysis; format: cell-based
EML4-ALK (Homo sapiens) = EML4-ALK (Homo sapiens) (UniProt Q9UM73+Q9HC35); test: Induction of EML4-ALK fusion protein degradation in mouse BaF3 cells at 0.001 to 10 uM after 3 hrs by Western blot analysis; format: cell-based; details: dose 0.001-10 µM
Sequence of EML4-ALK (Homo sapiens) (Q9HC35 whole entry partner, the tested form may be a part): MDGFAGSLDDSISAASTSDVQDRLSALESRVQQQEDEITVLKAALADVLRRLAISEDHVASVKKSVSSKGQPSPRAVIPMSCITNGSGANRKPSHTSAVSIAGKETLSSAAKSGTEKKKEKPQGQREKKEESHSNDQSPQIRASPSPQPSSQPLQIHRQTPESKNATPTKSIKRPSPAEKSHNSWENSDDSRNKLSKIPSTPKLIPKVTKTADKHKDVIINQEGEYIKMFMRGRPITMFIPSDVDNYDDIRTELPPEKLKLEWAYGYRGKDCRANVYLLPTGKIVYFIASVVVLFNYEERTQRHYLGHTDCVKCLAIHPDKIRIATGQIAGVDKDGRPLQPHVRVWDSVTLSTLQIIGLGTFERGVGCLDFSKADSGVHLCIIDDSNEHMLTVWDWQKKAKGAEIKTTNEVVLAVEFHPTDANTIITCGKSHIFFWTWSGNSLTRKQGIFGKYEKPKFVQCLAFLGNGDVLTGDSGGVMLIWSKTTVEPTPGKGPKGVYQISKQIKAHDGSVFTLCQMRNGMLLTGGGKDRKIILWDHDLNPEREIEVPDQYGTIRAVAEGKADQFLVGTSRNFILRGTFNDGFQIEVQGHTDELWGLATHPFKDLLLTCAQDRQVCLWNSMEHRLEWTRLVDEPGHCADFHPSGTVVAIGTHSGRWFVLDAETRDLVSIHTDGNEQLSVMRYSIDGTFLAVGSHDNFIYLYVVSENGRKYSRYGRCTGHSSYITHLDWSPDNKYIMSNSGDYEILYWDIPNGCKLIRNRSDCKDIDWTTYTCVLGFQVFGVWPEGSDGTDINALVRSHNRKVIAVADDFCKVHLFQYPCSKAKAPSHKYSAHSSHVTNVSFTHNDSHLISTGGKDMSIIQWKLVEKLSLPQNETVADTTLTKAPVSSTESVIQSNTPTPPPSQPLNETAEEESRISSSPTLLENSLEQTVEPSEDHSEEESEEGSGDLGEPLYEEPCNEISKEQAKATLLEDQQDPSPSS
Sequence of EML4-ALK (Homo sapiens) (Q9UM73 19-1620 limits assumed): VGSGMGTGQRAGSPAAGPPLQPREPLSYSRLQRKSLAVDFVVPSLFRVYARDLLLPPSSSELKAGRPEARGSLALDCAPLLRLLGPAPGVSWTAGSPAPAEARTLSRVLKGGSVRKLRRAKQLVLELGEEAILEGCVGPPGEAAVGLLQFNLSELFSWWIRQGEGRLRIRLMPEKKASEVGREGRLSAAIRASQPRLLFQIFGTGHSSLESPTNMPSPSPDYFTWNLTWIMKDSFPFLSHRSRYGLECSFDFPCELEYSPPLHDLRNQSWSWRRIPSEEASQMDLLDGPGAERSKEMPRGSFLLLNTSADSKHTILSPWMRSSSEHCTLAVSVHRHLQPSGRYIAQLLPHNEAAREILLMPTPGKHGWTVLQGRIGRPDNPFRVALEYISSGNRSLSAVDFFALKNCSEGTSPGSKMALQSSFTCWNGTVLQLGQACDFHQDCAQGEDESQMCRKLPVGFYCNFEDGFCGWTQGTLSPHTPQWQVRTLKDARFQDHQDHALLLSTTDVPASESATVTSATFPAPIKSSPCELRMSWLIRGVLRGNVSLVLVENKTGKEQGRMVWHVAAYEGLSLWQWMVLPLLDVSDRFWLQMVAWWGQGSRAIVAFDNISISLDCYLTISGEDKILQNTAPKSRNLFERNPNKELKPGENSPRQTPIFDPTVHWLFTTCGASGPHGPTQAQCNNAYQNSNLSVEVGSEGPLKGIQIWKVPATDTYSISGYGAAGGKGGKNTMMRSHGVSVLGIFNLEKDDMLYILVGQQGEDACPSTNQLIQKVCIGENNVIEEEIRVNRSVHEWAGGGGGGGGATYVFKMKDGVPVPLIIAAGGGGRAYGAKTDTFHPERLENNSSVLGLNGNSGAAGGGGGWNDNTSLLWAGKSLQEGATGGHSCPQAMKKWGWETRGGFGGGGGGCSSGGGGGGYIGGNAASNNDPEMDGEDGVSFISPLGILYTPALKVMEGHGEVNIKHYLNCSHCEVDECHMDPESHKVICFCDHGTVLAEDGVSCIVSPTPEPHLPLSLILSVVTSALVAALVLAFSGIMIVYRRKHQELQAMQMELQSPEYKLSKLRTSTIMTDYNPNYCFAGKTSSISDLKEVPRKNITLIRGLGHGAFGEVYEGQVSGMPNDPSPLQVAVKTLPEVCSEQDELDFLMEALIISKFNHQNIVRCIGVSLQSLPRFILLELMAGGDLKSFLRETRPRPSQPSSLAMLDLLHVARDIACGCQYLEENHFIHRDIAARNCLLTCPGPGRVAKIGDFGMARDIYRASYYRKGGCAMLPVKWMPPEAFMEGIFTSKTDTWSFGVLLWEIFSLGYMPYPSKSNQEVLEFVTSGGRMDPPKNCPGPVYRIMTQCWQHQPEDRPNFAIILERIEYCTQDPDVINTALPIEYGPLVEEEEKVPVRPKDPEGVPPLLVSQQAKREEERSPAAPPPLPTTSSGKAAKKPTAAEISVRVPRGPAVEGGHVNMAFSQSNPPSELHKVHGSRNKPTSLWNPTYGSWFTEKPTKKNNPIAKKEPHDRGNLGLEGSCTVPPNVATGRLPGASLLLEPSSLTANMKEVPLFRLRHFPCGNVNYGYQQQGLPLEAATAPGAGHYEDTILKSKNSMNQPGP

Sequence of RAC-alpha serine/threonine-protein kinase (Mus musculus) (P31750 whole entry): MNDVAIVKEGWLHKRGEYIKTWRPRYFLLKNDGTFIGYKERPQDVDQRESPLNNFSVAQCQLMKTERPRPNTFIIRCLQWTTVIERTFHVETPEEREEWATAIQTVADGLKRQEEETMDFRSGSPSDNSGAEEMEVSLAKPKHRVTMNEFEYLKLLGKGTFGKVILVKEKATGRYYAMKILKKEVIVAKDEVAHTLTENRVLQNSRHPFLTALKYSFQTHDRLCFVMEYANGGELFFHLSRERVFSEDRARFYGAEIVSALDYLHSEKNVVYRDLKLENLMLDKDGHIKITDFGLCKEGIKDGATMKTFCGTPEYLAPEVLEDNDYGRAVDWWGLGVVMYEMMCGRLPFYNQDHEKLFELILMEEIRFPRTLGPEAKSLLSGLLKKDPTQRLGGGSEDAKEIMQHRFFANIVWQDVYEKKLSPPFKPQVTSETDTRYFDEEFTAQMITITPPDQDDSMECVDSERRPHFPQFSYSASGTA

Compound: COc1cc(N2CCN(CCCCCCCC(=O)N[C@H](C(=O)N3C[C@@H](O)C[C@H]3C(=O)N[C@@H](C)c3ccc(-c4scnc4C)cc3)C(C)(C)C)CC2)ccc1Nc1ncc(Cl)c(Nc2ccccc2P(C)(C)=O)n1
Activity (BaF3 [4]): inactive

Compound: COc1cc(N2CCN(CCCC(=O)N[C@H](C(=O)N3C[C@H](O)C[C@H]3C(=O)N[C@@H](C)c3ccc(-c4scnc4C)cc3)C(C)(C)C)CC2)ccc1Nc1ncc(Cl)c(Nc2ccccc2P(C)(C)=O)n1
IC50 (BaF3 [1]): 370 nM | Activity (BaF3 [2]): 22.7% | Activity (BaF3 [3]): 6.2%

Compound: COc1cc(N2CCN(CCCCCCCC(=O)N[C@H](C(=O)N3C[C@H](O)C[C@H]3C(=O)N[C@@H](C)c3ccc(-c4scnc4C)cc3)C(C)(C)C)CC2)ccc1Nc1ncc(Cl)c(Nc2ccccc2P(C)(C)=O)n1
Activity (BaF3 [5]): Active | inhibition [6]: Dose-Dependent Effect | inhibition (BaF3 [7]): Dose-Dependent Effect | Activity (BaF3 [8]): 49.6% | Activity (BaF3 [9]): Dose-Dependent Effect | Activity (BaF3 [10]): inactive | Activity (BaF3 [11]): Active | IC50 (BaF3 [1]): 20 nM | Activity (BaF3 [2]): 79.1% | Activity (BaF3 [3]): 52% | Activity [12]: Active | Activity [13]: inactive | Activity [14]: inactive | Activity [15]: inactive | IC50 (NCI-H1975): 1130 nM | IC50 (NCI-H3255): 604 nM | IC50 (HCC827): 229 nM | IC50 (A-431): 526 nM | Activity (BaF3 [16]): inactive | Activity (BaF3 [17]): inactive | Activity (EML4-ALK (Homo sapiens)): inactive

Compound: COc1cc(N2CCN(CCCCCC(=O)N[C@H](C(=O)N3C[C@H](O)C[C@H]3C(=O)N[C@@H](C)c3ccc(-c4scnc4C)cc3)C(C)(C)C)CC2)ccc1Nc1ncc(Cl)c(Nc2ccccc2P(C)(C)=O)n1
IC50 (BaF3 [1]): 50 nM | Activity (BaF3 [2]): 75.4% | Activity (BaF3 [3]): 53.7%

Continued by falling IC50 (BaF3 [1]), values first:

IC50 (BaF3 [1]): 370 nM
Compound: COc1cc(C2CCN(CCCCCC(=O)N[C@H](C(=O)N3C[C@H](O)C[C@H]3C(=O)N[C@@H](C)c3ccc(-c4scnc4C)cc3)C(C)(C)C)CC2)ccc1Nc1ncc(Cl)c(Nc2ccccc2NS(C)(=O)=O)n1
Activity (BaF3 [2]): 35.2% | Activity (BaF3 [3]): 14%

IC50 (BaF3 [1]): 240 nM
Compound: COc1cc(N2CCN(CCCCCC(=O)N[C@H](C(=O)N3C[C@H](O)C[C@H]3C(=O)N[C@@H](C)c3ccc(-c4scnc4C)cc3)C(C)(C)C)CC2)ccc1Nc1ncc(Cl)c(Nc2ccccc2S(=O)(=O)C(C)C)n1
Activity (BaF3 [2]): 56.9% | Activity (BaF3 [3]): 48.5%

IC50 (BaF3 [1]): 70 nM
Compound: COc1cc(C2CCN(CCCCCC(=O)N[C@H](C(=O)N3C[C@H](O)C[C@H]3C(=O)N[C@@H](C)c3ccc(-c4scnc4C)cc3)C(C)(C)C)CC2)ccc1Nc1ncc(Cl)c(Nc2ccccc2N(C)S(C)(=O)=O)n1
Activity (BaF3 [2]): 74.1% | Activity (BaF3 [3]): 58.4%
